The test system of one data set is normal cells. As to conditions: cited from earlier work.
The test system of the next data set is viruses. To be noted: cited from earlier work.

The structures appear in SMILES notation.

For `O=C([O-])CC([O-])(CC(=O)[O-])C(=O)[O-].[Cu+2].[Na+].[Na+]` [MCC, disodium monocopper (II) citrate dihydrate], in the data set on inflammatory processes, the anti-inflammatory performance entry is “demonstrated utility on relieving inflammatory processes”. As for `CC(=O)[O-].CC(=O)[O-].[Zn+2]` [zinc acetate], the “toxicity to normal cells” value in the data set with normal cells is listed as “quite toxic to normal cells”. Besides, in the data set with viruses, the anti-viral activity entry is given as “very toxic to viruses”.

Values taken from patent US20060089407A1, “Methods for Making and Using Synergistic Multifunctional Compositions” (NATIONAL RESEARCH LABORATORIES, LTD., priority 2004, published 2006).
